Source: patent publication US12275719B2, “Small molecule inhibitors of galectin-3” (BRISTOL-MYERS SQUIBB COMPANY, priority 2019, dated 2025)

The compounds below were run against His-tagged recombinant human Gal-3 (hGal-3) (Homo sapiens, UniProt P17931) (assay: Gal-3 HTRF assay (hGal-3 / B-ASF binding inhibition)). Settings: Examples 26 to 29 and 66 to 68; HTRF, 15 nM hGal-3, 15 nM B-ASF.
Chain of His-tagged recombinant human Gal-3 (hGal-3) (P17931 whole entry): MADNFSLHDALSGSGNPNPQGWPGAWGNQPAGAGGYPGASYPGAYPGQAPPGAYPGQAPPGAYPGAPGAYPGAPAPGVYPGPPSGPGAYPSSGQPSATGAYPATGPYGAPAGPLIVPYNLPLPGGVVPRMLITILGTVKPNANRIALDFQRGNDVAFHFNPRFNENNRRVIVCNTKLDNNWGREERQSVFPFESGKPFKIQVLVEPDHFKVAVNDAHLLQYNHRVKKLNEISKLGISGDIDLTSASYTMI
Experimental: ASSAY BUFFER Composition: 25 mM HEPES, 100 mM NaCl, 0.005% Tween 20, 0.05% BSA prepared in sterile water (all reagents from Sigma).
Positive Control: 100% DMSO (1 μL)+His-tagged hGal-3 (20 μL)+β-ASF (20 μL)+Anti-His Terbium Antibody (5 μL)+Strep d2 Antibody (5 μL).
Negative Control: 100% DMSO (1 μL)+His-tagged hGal-3 (20 μL)+Anti His Terbium Antibody (5 μL)+Strep d2 Aantibody (5 μL).
PROTOCOL: The Gal-3 assays were performed in 384 white Opti plates in three replicates at room temperature with gentle shaking at 250-300 rpm From the original stocks, […] working stock concentrations of His-tagged recombinant human Gal-3 (hGal-3) and that of B-ASF were prepared. From the working stock, 20 μL of hGal-3 (15 nM) and 20 μL B-ASF (15 nM) were added to the plates. In Negative Control, only hGal-3 was added. A concentration range of 50× working stocks were prepared for the compounds in 100% DMSO. Aliquots of 1 μL of the compounds were added to the wells and pre-incubated with 20 μL hGal-3 per well for 30 minutes Then 20 μL B-ASF were added and incubated for another 1 hour. To detect the signal, 5 μL (final conc. of 1.0 nM) terbium labelled Anti-His antibody was added and incubated for 30 min followed by adding 5 μL (final conc. of 20 nM) Streptavidin d2 and incubation for another 1 hour. The assay signal was detected using HTRF screen protocol (Excitation wavelength=340 nm, emission wavelength=615 nm/665 nm) on Envision 2104 Multilabel Reader. Data analysed using Toolset and Curve Master. Results are reported in the experimental section (IC50 in μM).
`Cn1nc([C@@H]2O[C@H](CO)[C@H](O)[C@H](n3cc(-c4ccc(Br)c(F)c4F)nn3)[C@H]2O)n(-c2cc(Cl)ccc2C(F)(F)F)c1=S` [Example 66, 5-((2S,3R,4R,5R,6R)-4-(4-(4-bromo-2,3-difluorophenyl)-1H-1,2,3-triazol-1-yl)-3,5-dihydroxy-6-(hydroxymethyl)tetrahydro-2H-pyran-2-yl)-4-(5-chloro-2-(trifluoromethyl)phenyl)-2-methyl-2,4-dihydro-3H-1,2,4-triazole-3-thione] showed an IC50 of 0.75 µM.
For `Cn1nc([C@@H]2O[C@H](CO)[C@H](O)[C@H](n3cc(-c4ccc(Br)c(F)c4F)nn3)[C@H]2O)n(-c2cc(Cl)ccc2C(F)(F)F)c1=S` [Example 67, 5-((2S,3R,4R,5R,6R)-4-(4-(4-bromo-2,3-difluorophenyl)-1H-1,2,3-triazol-1-yl)-3,5-dihydroxy-6-(hydroxymethyl)tetrahydro-2H-pyran-2-yl)-4-(5-chloro-2-(trifluoromethyl)phenyl)-2-methyl-2,4-dihydro-3H-1,2,4-triazole-3-thione], the IC50 was 0.0093 µM.
Compound `OC[C@H]1O[C@@H](c2nncn2-c2ccc3ncsc3c2)[C@H](OCC(F)F)[C@@H](n2cc(-c3cc(F)c(Br)c(F)c3)nn2)[C@H]1O` [Example 68, (2R,3R,4S,5R,6S)-6-(4-(benzo[d]thiazol-6-yl)-4H-1,2,4-triazol-3-yl)-4-(4-(4-bromo-3,5-difluorophenyl)-1H-1,2,3-triazol-1-yl)-5-(2,2-difluoroethoxy)-2-(hydroxymethyl)tetrahydro-2H-pyran-3-ol] has an IC50 of 0.025 µM.

Same assay, conditions: table of Examples 30 to 65
For `OC[C@H]1O[C@@H](c2nncn2-c2cc(Cl)ccc2OC(F)(F)F)[C@H](OCC(F)F)[C@@H](n2cc(-c3ccc(Cl)c(F)c3F)nn2)[C@H]1O` [Example 53], the IC50 was 0.019 µM.
For `OC[C@H]1O[C@@H](c2nncn2-c2cc(Cl)ccc2C(F)(F)F)[C@H](OCC(F)F)[C@@H](n2cc(-c3ccc(Cl)c(F)c3F)nn2)[C@H]1O` [Example 54], the IC50 was 0.012 µM.
`CO[C@@H]1[C@@H](n2cc(-c3c(F)c(F)c(Br)c(F)c3F)nn2)[C@@H](O)[C@@H](CO)O[C@H]1c1nncn1-c1cc(Cl)ccc1OC(F)(F)F` [Example 55] gave an IC50 of 0.011 µM.
`CO[C@@H]1[C@@H](n2cc(-c3ccc(Cl)c(F)c3F)nn2)[C@@H](O)[C@@H](CO)O[C@H]1c1nncn1-c1cc(Cl)ccc1OC(F)(F)F` [Example 56] showed an IC50 of 0.011 µM.
Work on `OC[C@H]1O[C@@H](c2nncn2-c2cc(Cl)ccc2OC(F)(F)F)[C@H](OCC(F)F)[C@@H](n2cc(-c3ccc(Br)c(F)c3F)nn2)[C@H]1O` [Example 57] yielded an IC50 of 0.021 µM.
`OC[C@H]1O[C@@H](c2nncn2-c2cc(Cl)ccc2C(F)(F)F)[C@H](OCC(F)(F)F)[C@@H](n2cc(-c3ccc(Br)c(F)c3F)nn2)[C@H]1O` [Example 58] showed an IC50 of 0.014 µM.
`OC[C@H]1O[C@@H](c2nncn2-c2cc(Cl)ccc2OC(F)(F)F)[C@H](OCC(F)(F)F)[C@@H](n2cc(-c3ccc(Br)c(F)c3F)nn2)[C@H]1O` [Example 59] gave an IC50 of 0.057 µM.
With `OC[C@H]1O[C@@H](c2nncn2-c2cc(Cl)ccc2C(F)(F)F)[C@H](OCC(F)(F)F)[C@@H](n2cc(-c3ccc(Cl)c(F)c3F)nn2)[C@H]1O` [Example 60] the IC50 was 0.014 µM.
For `OC[C@H]1O[C@@H](c2nncn2-c2cc(Cl)ccc2OC(F)(F)F)[C@H](OCC(F)(F)C(F)F)[C@@H](n2cc(-c3ccc(Br)c(F)c3F)nn2)[C@H]1O` [Example 61], the IC50 was 0.049 µM.
Compound `OC[C@H]1O[C@@H](c2nncn2-c2cc(Cl)ccc2C(F)(F)F)[C@H](OCC(F)F)[C@@H](n2cc(-c3ccc(Br)c(F)c3)nn2)[C@H]1O` [Example 62] has an IC50 of 0.04 µM.
`OC[C@H]1O[C@@H](c2nncn2-c2cc(Cl)ccc2C(F)(F)F)[C@H](OCC(F)(F)F)[C@@H](n2cc(-c3ccc(Br)c(F)c3)nn2)[C@H]1O` [Example 63] showed an IC50 of 0.078 µM.
Compound `OC[C@H]1O[C@@H](c2nncn2-c2cc(Cl)ccc2C(F)(F)F)[C@H](OCC(F)(F)C(F)F)[C@@H](n2cc(-c3ccc(Br)c(F)c3)nn2)[C@H]1O` [Example 64] has an IC50 of 0.1 µM.
`OC[C@H]1O[C@@H](c2nncn2-c2cc(Cl)ccc2C(F)(F)F)[C@H](OCC(F)(F)C(F)F)[C@@H](n2cc(-c3ccc(Br)c(F)c3F)nn2)[C@H]1O` [Example 65] showed an IC50 of 0.018 µM.

Same assay, conditions: table of Examples 69 to 75
Work on `OC[C@H]1O[C@@H](c2nncn2-c2cc(Cl)cc3cccnc23)[C@H](OCC(F)F)[C@@H](n2cc(-c3cc(F)c(Br)c(F)c3)nn2)[C@H]1O` [Example 69] yielded an IC50 of 0.13 µM.
Compound `OC[C@H]1O[C@@H](c2nncn2-c2ccc3ncsc3c2)[C@H](OCC(F)F)[C@@H](n2cc(-c3ccc(Br)c(F)c3F)nn2)[C@H]1O` [Example 70] has an IC50 of 0.011 µM.
`Cc1nc2ccc(-n3cnnc3[C@@H]3O[C@H](CO)[C@H](O)[C@H](n4cc(-c5ccc(Br)c(F)c5F)nn4)[C@H]3OCC(F)F)cc2s1` [Example 71] showed an IC50 of 0.02 µM.
For `Cc1nc2ccc(-n3cnnc3[C@@H]3O[C@H](CO)[C@H](O)[C@H](n4cc(-c5cc(F)c(Cl)c(F)c5)nn4)[C@H]3OCC(=O)O)cc2s1` [Example 72], the IC50 was 0.016 µM.
For `CNCCN(C)C(=O)CO[C@@H]1[C@@H](n2cc(-c3cc(F)c(Cl)c(F)c3)nn2)[C@@H](O)[C@@H](CO)O[C@H]1c1nncn1-c1ccc2nc(C)sc2c1` [Example 73], the IC50 was 0.054 µM.
`Cc1nc2ccc(-n3cnnc3[C@@H]3O[C@H](CO)[C@H](O)[C@H](n4cc(-c5cc(F)c(Cl)c(Cl)c5)nn4)[C@H]3O)cc2s1` [Example 74] was tested, and the IC50 was 0.035 µM.
`Cc1nc2ccc(-n3cnnc3[C@@H]3O[C@H](CO)[C@H](O)[C@H](n4cc(-c5cc(F)c(Cl)c(Cl)c5)nn4)[C@H]3OCC(=O)O)cc2s1` [Example 75] was tested, and the IC50 was 0.018 µM.
